From paper PMC12677607, “Identification of a Pair of Linear or Cyclic Naturally Inspired Bifunctional Lipopeptide Antibiotics That Overcome Antimicrobial Resistance” (Advanced Science, 2025)
Bridge positions count the residues as written; N and C are the ends. Square brackets hold non-standard residues; d marks the D form. Peptide text beside a SMILES is read from it. * marks the point of attachment. Myristoyl = CCCCCCCCCCCCCC(=O)*; Orn = NCCC[C@H](N)C(=O)O; Dab = NCC[C@H](N)C(=O)O; Dap = NC[C@H](N)C(=O)O

Legend:
[1] = test system: S. aureus USA300 Cls2A338stop; assay: MIC against telomycin-resistant mutant; assay type: cell-based; settings: Figure S127b, telomycin-resistant mutant
Experimental: (§1) All MIC assays were performed two independent times (n = 2) in 96‐well plates using a broth micro‐dilution method. The lowest concentration of that inhibited visible microbial growth was recorded as the MIC value.
(§2) For most of bacterial strains, overnight cultures were diluted 5000‐fold in LB broth. For E. faecium and S. aureus, overnight cultures were diluted 1000‐ and 10000‐fold in LB broth, respectively. 100 µL of diluted cells was mixed with 100 µL of LB broth containing each peptide ranging from 64 to 0.125 µg mL^−1 at 2‐fold serial dilutions.
(§3) Overnight cultures S. aureus USA300 were diluted 10000‐fold in LB broth, and 100 µL of dilute cell suspension was added to 96‐well plates containing 100 µL serially diluted aquicidine C4, telomycin, and daptomycin (with 15 mM CaCl2). Overnight cultures K. pneumoniae CRKP5452 were diluted 5000‐fold in LB broth, and 100 µL of dilute cell suspension was added to 96‐well plates containing 100 µL serially diluted aquicidine L and colistin. After an incubation of 24 h at 37 °C, the MIC value was determined. […] The MIC value was recorded as described above, and the process was repeated daily for 21 days. Experiments were performed two independent times (n = 2).
(§4) Single‐nucleotide polymorphisms (SNPs) for telomycin‐, daptomycin‐ or colistin‐resistant mutants were identified using SNIPPY by mapping DNBSEQ‐seq reads to the reference genome of S. aureus USA300 or K. pneumoniae CRKP5452.

[2] = test system: S. aureus USA300 MprFT345A; assay: MIC against daptomycin-resistant mutant; assay type: cell-based
Experimental: as §1, §2, §3, §4

[3] = test system: Staphylococcus aureus USA300; assay: microbe, parasite or virus in culture; assay type: cell-based; settings: for MIC (μg/mL) S. aureus USA300: USA300, 16 h
Experimental: as §1, §2

HeLa cells = assay: Cytotoxicity assay (CCK-8); assay type: cell-based, human; settings: 48 h
Experimental: The cytotoxicity of each synAQU peptide was assessed using a cell counting kit‐8 (CCK‐8) assay. HeLa cells were first seeded in a 96‐well flat‐bottom microtiter plate with a density of ∼5000 cells per well and incubated in the DMEM medium supplemented with 10% FBS at 37 °C with 5% CO2 for 24 h. […] All cytotoxicity experiments were done in triplicate (n = 3) and repeated two independent times (n = 2).

[4] = test system: Candida albicans ATCC 10231; assay: MIC assay (YPD broth); assay type: cell-based; settings: ATCC 10231, 16 h
Experimental: as §1
(§5) For fungal strains, overnight cultures were diluted 2000‐fold in YPD broth. 100 µL of diluted cells was mixed with 100 µL of YPD broth containing each peptide ranging from […] 64 to 0.125 µg mL^−1 at 2‐fold serial dilutions.

[5] = test system: Acinetobacter baumannii 1104008; assay: microbe, parasite or virus in culture; assay type: cell-based; settings: 1104008, 16 h
Experimental: as §1, §2

[6] = test system: Streptococcus pyogenes ATCC 19615; assay: microbe, parasite or virus in culture; assay type: cell-based; settings: ATCC 19615, 16 h
Experimental: as §1, §2

[7] = test system: Klebsiella pneumoniae CRKP 5452; assay: microbe, parasite or virus in culture; assay type: cell-based; settings: CRKP 5452, 16 h
Experimental: as §1, §2

[8] = test system: four Gram-negative bacteria, four Gram-positive bacteria, and one fungal pathogen; assay: Initial antimicrobial assay of 17 synAQUs; assay type: cell-based; settings: MIC up to 64 µg mL^−1, Figure 3a
Experimental: as §1, §2, §5

Molecule | antibacterial activity (MIC) S. aureus USA300 Cls2A338stop [1] [µg/mL] | antibacterial activity (MIC) S. aureus USA300 MprFT345A ([2]; Figure S127b, daptomycin-resistant mutant) [µg/mL] | increase in MIC against resistant mutant compared to wild type ([2]; S. aureus USA300 MprF^T345A vs wild type) [fold] | antibacterial activity (MIC) S. aureus USA300 ([3]; Figure S127b, wild type) [µg/mL] | MIC (μg/mL) Hela (HeLa cells) [µg/mL] | MIC (μg/mL) C. albicans ATCC 10231 [4] [µg/mL] | MIC (μg/mL) S. aureus USA300 [3] [µg/mL] | MIC (μg/mL) A. baumannii 1104008 [5] [µg/mL] | MIC (μg/mL) S. pyogenes ATCC 19615 [6] [µg/mL] | MIC (μg/mL) K. pneumoniae CRKP 5452 [7] [µg/mL] | activity against all nine tested strains [8]
Daptomycin | 1 | 16 | 16 | 1 | – | – | – | – | – | – | –
CCCCCCCCCCCCCC(=O)N[C@@H](CCCCN)C(=O)N[C@@H](CCCNC(=N)N)C(=O)N[C@@H](CC(C)C)C(=O)N[C@@H](C)C(=O)N[C@@H](CC(C)C)C(=O)N[C@@H]1C(=O)N[C@@H](CC(=O)O)C(=O)N[C@@H](CC(=O)O)C(=O)N[C@@H](C(C)C)C(=O)N[C@@H](CC(N)=O)C(=O)N[C@@H](C(C)C)C(=O)N[C@H](Cc2ccccc2)C(=O)N[C@@H](CC(N)=O)C(=O)O[C@@H]1C [synAQU7-C6] (Myristoyl-KRLALTDDVNV[dF]N; ester 6-C) | – | – | – | – | > 64 | > 64 | > 64 | > 64 | > 64 | > 64 | not active
CCCCCCCCCCCCCC(=O)N[C@@H](CN)C(=O)N[C@@H]1C(=O)N[C@@H](CC(C)C)C(=O)N[C@@H](CO)C(=O)N[C@@H](CCN)C(=O)N[C@@H](CN)C(=O)N[C@@H](Cc2ccccc2)C(=O)N[C@@H]([C@@H](C)CC)C(=O)N[C@@H](CCCN)C(=O)N[C@@H](CC(N)=O)C(=O)N[C@@H](Cc2ccccc2)C(=O)O[C@@H]1C [synAQU5-C2] (Myristoyl-[Dap]TLS[Dab][Dap]FI[Orn]NF; ester 2-C) | – | – | – | – | > 64 | > 64 | > 64 | > 64 | > 64 | > 64 | not active
